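Interpolation was linear, between the two tested concentrations surrounding the appropriate level; five concentrations were tested over 48 hours in 96-well plates. TGI: total growth inhibition.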

Among the test systems are A498 renal; CAKI-1 renal; EKVX NSCLC; IGROV1 ovarian; M14 melanoma; M19-MEL melanoma; MOLT-4 leukemia; NCI-H23 lung; OVCAR-5 ovarian; OVCAR-8 ovarian; SF-539 CNS; SK-MEL-28 melanoma; SK-OV-3 ovarian; SNB-75 CNS; TK-10 renal; UACC-62 melanoma; BT-549 breast; HCC-2998 colon; HOP-92 NSCLC; MDA-MB-435.
What all share (assay): NCI tumour cell line growth inhibition, 48 h

As to `CCCCN(C)CC(C(C)=O)C(c1ccccc1)c1c(O)c2ccccc2oc1=O` (stereo not drawn), the TGI with A498 renal, with CAKI-1 renal, in the assay with EKVX NSCLC, in the assay with IGROV1 ovarian, with M14 melanoma and in the assay on M19-MEL melanoma was > 100 µM each time. The TGI in the assay on MOLT-4 leukemia, in the assay on NCI-H23 lung, in the assay on OVCAR-5 ovarian, in the assay on OVCAR-8 ovarian, with SF-539 CNS and in the assay with SK-MEL-28 melanoma was > 100 µM in each case. Besides, the TGI in the assay on SK-OV-3 ovarian, in the assay with SNB-75 CNS, in the assay with TK-10 renal and with UACC-62 melanoma was > 100 µM each time.
Take `NC1=Nc2ccccc2Sc2nccn21`: the TGI was 75.8 µM in the assay on A498 renal; > 100 µM in the assay on BT-549 breast; 64.9 µM in the assay on CAKI-1 renal; > 100 µM with EKVX NSCLC; 43 µM in the assay on HCC-2998 colon; 40.8 µM with HOP-92 NSCLC. For the same molecule, the TGI with IGROV1 ovarian is > 100 µM; with M14 melanoma it was 32.8 µM; in the assay with MDA-MB-435 it was 59 µM; in the assay with MOLT-4 leukemia it was 49.4 µM; with NCI-H23 lung, 52.2 µM; with OVCAR-5 ovarian it was > 100 µM. For the same molecule, the TGI in the assay on OVCAR-8 ovarian was > 100 µM; in the assay on SF-539 CNS, 56.1 µM; with SK-MEL-28 melanoma, > 100 µM; in the assay on SK-OV-3 ovarian it was > 100 µM; with SNB-75 CNS, 54.3 µM; in the assay on TK-10 renal, 72.6 µM. Also, in the assay with UACC-62 melanoma, the TGI was > 100 µM.
On to `CSc1c(C(N)=S)c(N)nn1-c1ccccc1`, for which the TGI in the assay on A498 renal, in the assay with BT-549 breast, in the assay with CAKI-1 renal, in the assay on EKVX NSCLC, with HCC-2998 colon and in the assay with HOP-92 NSCLC was > 100 µM each time. The TGI in the assay on IGROV1 ovarian, in the assay on M14 melanoma, with MDA-MB-435, in the assay with MOLT-4 leukemia, in the assay on NCI-H23 lung and in the assay with OVCAR-5 ovarian was > 100 µM in each case. For the same molecule, the TGI in the assay on OVCAR-8 ovarian, with SF-539 CNS, in the assay on SK-MEL-28 melanoma, with SK-OV-3 ovarian, with SNB-75 CNS and in the assay with TK-10 renal was > 100 µM each time. In addition, the TGI with UACC-62 melanoma is > 100 µM.
In the case of `CC12CP(=O)(O)CC1C2(Cl)Cl` (stereo not drawn), the TGI in the assay on A498 renal, with BT-549 breast, with CAKI-1 renal, in the assay with EKVX NSCLC, with HCC-2998 colon and in the assay on HOP-92 NSCLC was > 100 µM each time. Also, the TGI in the assay with IGROV1 ovarian, in the assay on M14 melanoma, in the assay with MDA-MB-435, in the assay on MOLT-4 leukemia, in the assay on NCI-H23 lung and with OVCAR-5 ovarian was > 100 µM each time. Also, the TGI in the assay with OVCAR-8 ovarian, in the assay with SF-539 CNS, with SK-MEL-28 melanoma, in the assay on SK-OV-3 ovarian, with SNB-75 CNS and with TK-10 renal was > 100 µM in each case. In the assay with UACC-62 melanoma, the TGI was > 100 µM.
As for `COc1ccc(CC2Cc3ccccc3CC(=O)N2)cc1OC` (stereo not drawn), the TGI with A498 renal, with BT-549 breast, with CAKI-1 renal, in the assay on EKVX NSCLC, in the assay with HCC-2998 colon and with HOP-92 NSCLC was > 100 µM each time. Also, the TGI in the assay with IGROV1 ovarian is > 100 µM; in the assay with M14 melanoma it was > 100 µM; in the assay with MDA-MB-435, > 100 µM; in the assay with MOLT-4 leukemia, 65 µM; in the assay with NCI-H23 lung, > 100 µM; with OVCAR-5 ovarian it was > 100 µM. For the same molecule, the TGI in the assay on OVCAR-8 ovarian, in the assay with SF-539 CNS, in the assay with SK-MEL-28 melanoma, in the assay on SK-OV-3 ovarian, with SNB-75 CNS and with TK-10 renal was > 100 µM each time. The TGI in the assay with UACC-62 melanoma is > 100 µM.
Turning to `Cc1cn(C(CO)OC(CO)CN(O)C2C3CC4CC(C3)CC2C4)c(=O)[nH]c1=O` (stereo not drawn), the TGI with A498 renal, in the assay with BT-549 breast, in the assay with CAKI-1 renal, in the assay on EKVX NSCLC, with HCC-2998 colon and in the assay with HOP-92 NSCLC was > 100 µM throughout. Also, the TGI in the assay with IGROV1 ovarian, in the assay with M14 melanoma, in the assay with MDA-MB-435, in the assay with MOLT-4 leukemia, in the assay with NCI-H23 lung and in the assay with OVCAR-5 ovarian was > 100 µM each time. Besides, the TGI in the assay with OVCAR-8 ovarian, in the assay with SF-539 CNS, with SK-MEL-28 melanoma, with SK-OV-3 ovarian, with SNB-75 CNS and in the assay on TK-10 renal was > 100 µM each time. Further, in the assay with UACC-62 melanoma, the TGI is > 100 µM.
With `CCOC(=O)C1=NN(c2ccc(C)cc2)C2(c3ccccc3)C=C(c3ccccc3)N(C)CCN12` (stereo not drawn), the TGI in the assay on A498 renal, in the assay with BT-549 breast, in the assay on CAKI-1 renal, in the assay with EKVX NSCLC, in the assay with HCC-2998 colon and in the assay with HOP-92 NSCLC was > 100 µM each time. Further, the TGI in the assay with IGROV1 ovarian, with M14 melanoma, in the assay on MDA-MB-435, in the assay on MOLT-4 leukemia, in the assay with NCI-H23 lung and in the assay with OVCAR-5 ovarian was > 100 µM throughout. Further, the TGI in the assay on OVCAR-8 ovarian, in the assay on SF-539 CNS, in the assay on SK-MEL-28 melanoma, in the assay with SK-OV-3 ovarian, with SNB-75 CNS and with TK-10 renal was > 100 µM in each case. For the same molecule, in the assay with UACC-62 melanoma, the TGI was > 100 µM.
As for `Cn1c2ccccc2c2c3c(c4c5ccccc5n(C)c4c21)C(=O)N(Cc1ccccc1)C3=O`, the TGI in the assay on A498 renal, in the assay on BT-549 breast, in the assay on CAKI-1 renal, in the assay on EKVX NSCLC, with HCC-2998 colon and in the assay with HOP-92 NSCLC was > 100 µM in each case. For the same molecule, the TGI in the assay on IGROV1 ovarian, in the assay on M14 melanoma, in the assay with MDA-MB-435, with MOLT-4 leukemia, in the assay with NCI-H23 lung and in the assay on OVCAR-5 ovarian was > 100 µM in each case. The TGI in the assay on OVCAR-8 ovarian, with SF-539 CNS, in the assay on SK-MEL-28 melanoma, with SK-OV-3 ovarian, in the assay with SNB-75 CNS and in the assay with TK-10 renal was > 100 µM throughout. Further, the TGI in the assay on UACC-62 melanoma is > 100 µM.
With `CON1C(=O)C2(CCCCC2)C(=O)C12C=CC(C)CC2` (stereo not drawn), the TGI with A498 renal, in the assay on CAKI-1 renal, in the assay on EKVX NSCLC, in the assay on HCC-2998 colon, in the assay with IGROV1 ovarian and with M14 melanoma was > 100 µM each time. The TGI in the assay with M19-MEL melanoma, in the assay on MOLT-4 leukemia, with NCI-H23 lung, with OVCAR-8 ovarian, in the assay on SF-539 CNS and with SK-MEL-28 melanoma was > 100 µM each time. For the same molecule, the TGI in the assay with SK-OV-3 ovarian, in the assay on SNB-75 CNS, with TK-10 renal and in the assay on UACC-62 melanoma was > 100 µM each time.
With `CO/S(=N/S(=O)(=O)c1ccccc1)c1ccccc1[N+](=O)[O-]` (stereo not drawn), the TGI in the assay on CAKI-1 renal, with EKVX NSCLC, with HCC-2998 colon, with IGROV1 ovarian, in the assay with M14 melanoma and in the assay with M19-MEL melanoma was > 100 µM in each case. Moreover, the TGI with MOLT-4 leukemia, with NCI-H23 lung, in the assay with OVCAR-5 ovarian, in the assay on OVCAR-8 ovarian, with SF-539 CNS and in the assay on SK-MEL-28 melanoma was > 100 µM throughout. For the same molecule, the TGI in the assay with SK-OV-3 ovarian, with SNB-75 CNS and in the assay with UACC-62 melanoma was > 100 µM in each case.
On to `Cc1cn(CCCCOC(=O)NC(CCCN=C(N)N)C(=O)O)c(=O)[nH]c1=O` (stereo not drawn), for which the TGI in the assay with A498 renal, with BT-549 breast, with CAKI-1 renal, with EKVX NSCLC, with HCC-2998 colon and in the assay on HOP-92 NSCLC was > 100 µM throughout. Besides, the TGI in the assay on IGROV1 ovarian, in the assay on M14 melanoma, with MDA-MB-435, with MOLT-4 leukemia, with NCI-H23 lung and in the assay with OVCAR-5 ovarian was > 100 µM each time. Further, the TGI with OVCAR-8 ovarian, in the assay with SF-539 CNS, with SK-MEL-28 melanoma, in the assay on SK-OV-3 ovarian, in the assay with SNB-75 CNS and in the assay with TK-10 renal was > 100 µM each time. Further, the TGI in the assay on UACC-62 melanoma is > 100 µM.
Consider `C=C(C)[C@@]12C[C@H](OC(=O)[C@H](O)[C@@H](NC(=O)c3ccccc3)c3ccccc3)C(C)=C1[C@@H](OC(C)=O)C(=O)[C@@]1(C)C([C@@H]2OC(=O)c2cc(F)cc(F)c2)C2(OC(C)=O)CO[C@@H]2C[C@@H]1O` (stereo partly drawn), for which the TGI in the assay on A498 renal is 3.03 µM; in the assay with BT-549 breast, 2.99 µM; with CAKI-1 renal, > 10 µM; in the assay with EKVX NSCLC, > 10 µM; in the assay with HCC-2998 colon, 2.16 µM; in the assay with HOP-92 NSCLC, > 10 µM. For the same molecule, the TGI in the assay on IGROV1 ovarian is > 10 µM; with M14 melanoma, > 10 µM; in the assay with MDA-MB-435 it was 0.0818 µM; in the assay on MOLT-4 leukemia, 1.24 µM; in the assay on NCI-H23 lung, 3.14 µM; in the assay with OVCAR-5 ovarian, 1.51 µM. In addition, the TGI in the assay on OVCAR-8 ovarian is > 4.03 µM; with SF-539 CNS it was 0.259 µM; in the assay on SK-MEL-28 melanoma, > 10 µM; in the assay on SK-OV-3 ovarian it was > 10 µM; in the assay on SNB-75 CNS, 0.973 µM; with TK-10 renal, 9.66 µM. The TGI in the assay on UACC-62 melanoma came to 3.26 µM.

These data come from PubChem BioAssay (NCI).
